# Target: Metabotropic glutamate receptor 1 (Rattus norvegicus, UniProt P23385)
# Assay: Inhibition of rat mGluR1
# Details: read-out: IC50
# Metabotropic glutamate receptor 1, sequence (P23385 whole entry): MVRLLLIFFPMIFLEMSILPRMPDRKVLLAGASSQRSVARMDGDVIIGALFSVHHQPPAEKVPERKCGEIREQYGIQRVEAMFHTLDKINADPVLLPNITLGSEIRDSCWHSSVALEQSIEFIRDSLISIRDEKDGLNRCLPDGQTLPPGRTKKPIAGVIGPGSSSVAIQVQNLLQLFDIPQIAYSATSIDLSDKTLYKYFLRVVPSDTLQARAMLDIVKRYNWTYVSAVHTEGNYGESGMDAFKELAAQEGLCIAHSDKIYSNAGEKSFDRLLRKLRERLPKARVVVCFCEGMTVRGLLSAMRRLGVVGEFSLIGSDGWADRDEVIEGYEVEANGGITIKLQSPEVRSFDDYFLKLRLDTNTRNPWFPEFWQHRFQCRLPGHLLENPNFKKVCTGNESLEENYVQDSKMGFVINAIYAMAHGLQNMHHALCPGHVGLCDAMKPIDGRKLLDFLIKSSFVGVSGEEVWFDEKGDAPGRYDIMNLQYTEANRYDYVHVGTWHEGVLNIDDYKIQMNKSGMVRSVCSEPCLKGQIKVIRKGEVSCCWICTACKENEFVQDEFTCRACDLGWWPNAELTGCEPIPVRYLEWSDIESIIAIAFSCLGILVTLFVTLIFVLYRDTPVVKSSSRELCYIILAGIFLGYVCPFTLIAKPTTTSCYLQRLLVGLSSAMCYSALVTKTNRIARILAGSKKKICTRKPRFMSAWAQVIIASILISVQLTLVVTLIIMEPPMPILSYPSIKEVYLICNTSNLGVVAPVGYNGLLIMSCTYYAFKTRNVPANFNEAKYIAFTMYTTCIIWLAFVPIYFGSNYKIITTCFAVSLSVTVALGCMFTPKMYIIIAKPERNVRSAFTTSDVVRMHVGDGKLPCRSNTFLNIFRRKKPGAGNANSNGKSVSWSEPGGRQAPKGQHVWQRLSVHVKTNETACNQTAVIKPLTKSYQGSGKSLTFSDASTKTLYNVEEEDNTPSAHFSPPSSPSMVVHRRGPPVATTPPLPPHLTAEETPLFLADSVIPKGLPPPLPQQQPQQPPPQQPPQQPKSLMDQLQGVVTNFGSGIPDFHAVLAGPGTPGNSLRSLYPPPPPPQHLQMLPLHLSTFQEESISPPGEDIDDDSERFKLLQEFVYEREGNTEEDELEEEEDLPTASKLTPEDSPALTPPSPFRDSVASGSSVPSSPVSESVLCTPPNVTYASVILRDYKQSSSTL
row,IC50 [nM],SMILES
1,13,CN(C)c1ccnc2sc3c(=O)n(C4CCCCCCC4)cnc3c12
2,5,Cc1ccc(-n2cnc3c(sc4nccc(N(C)C)c43)c2=O)cc1
3,37,CCc1ccc(-n2cnc3c(sc4nccc(N(C)CC)c43)c2=O)cc1
4,335,CCC(CC)n1cnc2c(sc3nccc(N(C)C)c32)c1=O
5,139,CN(C)c1ccnc2sc3c(=O)n(CC4CCCCC4)cnc3c12
6,9,CCc1cccc(-n2cnc3c(sc4nccc(N(C)C)c43)c2=O)c1
7,41,CCc1ccc(-n2cnc3c(sc4nccc(NC5CC5)c43)c2=O)cc1
8,632,CN(C)c1ccnc2sc3c(=O)n(C4CC4)cnc3c12
9,140,CC1CCC(n2cnc3c(sc4nccc(N(C)C)c43)c2=O)CC1 (stereo unspecified)
10,76,CN(C)c1ccnc2sc3c(=O)n(C45CC6CC(CC(C6)C4)C5)cnc3c12
11,17,Cc1ccc(-n2cnc3c(sc4nccc(N(C)C)c43)c2=O)c(C)c1
12,32,CN(C)c1ccnc2sc3c(=O)n(-c4ccc(C(F)(F)F)cc4)cnc3c12
13,20,CN(C)c1ccnc2sc3c(=O)n(-c4ccccc4)cnc3c12
14,5,CN(C)c1ccnc2sc3c(=O)n(C4CCCC4)cnc3c12
15,130,CC1CCCCC1n1cnc2c(sc3nccc(N(C)C)c32)c1=O (stereo unspecified)
16,44,CCc1ccc(-n2c(C)nc3c(sc4nccc(N(C)C)c43)c2=O)cc1
17,45,CN(C)c1ccnc2sc3c(=O)n(-c4ccc(Cl)cc4Cl)cnc3c12
18,1,CN(C)c1ccnc2sc3c(=O)n(C4CCCCCC4)cnc3c12
19,23,CN(C)c1ccnc2sc3c(=O)n(-c4ccc(F)cc4)cnc3c12
20,71,CCc1ccc(-n2cnc3c(sc4nccc(N(C)CCOC)c43)c2=O)cc1
21,113,CCc1ccc(-n2cnc3c(sc4nccc(N5CCC5)c43)c2=O)cc1
22,84,CCc1ccc(-n2c(CC)nc3c(sc4nccc(N(C)C)c43)c2=O)cc1
23,8500,CN(C)c1ccnc2sc3c(=O)n(-c4ccc(C(C)(C)C)cc4)cnc3c12

row,IC50 [nM],SMILES
1,16,CN(C)c1ccnc2sc3c(=O)n(-c4ccc(Cl)cc4)cnc3c12
2,4,CN(C)c1ccnc2sc3c(=O)n(-c4ccc(Br)cc4)cnc3c12
3,407,CC(C)c1ccc(-n2cnc3c(sc4nccc(N(C)C)c43)c2=O)cc1
4,98,CCc1ccc(-n2cnc3c(sc4nccc(NC)c43)c2=O)cc1
5,251,CCc1ccccc1-n1cnc2c(sc3nccc(N(C)C)c32)c1=O
6,99,CCc1ccc(-n2cnc3c(sc4nccc(NCC(F)(F)F)c43)c2=O)cc1
7,3,CCc1ccc(-n2cnc3c(sc4nccc(N(C)C)c43)c2=O)cc1
8,167,CN(C)c1ccnc2sc3c(=O)n(C4CCC4)cnc3c12
9,10,CN(C)c1ccnc2sc3c(=O)n(N4CCCCCC4)cnc3c12
10,26,CN(C)c1ccnc2sc3c(=O)n(CC4CCCC4)cnc3c12
11,87,CN(C)c1ccnc2sc3c(=O)n(-c4ccc(C5CC5)cc4)cnc3c12
12,101,CCCCc1nc2c(sc3nccc(N(C)C)c32)c(=O)n1-c1ccc(CC)cc1
13,281,CN(C)c1ccnc2sc3c(=O)n(Cc4ccccc4)cnc3c12
14,482,CC1CCCC(n2cnc3c(sc4nccc(N(C)C)c43)c2=O)C1 (stereo unspecified)
15,50,CN(C)c1ccnc2sc3c(=O)n(C4CCCCC4)cnc3c12
16,39,COc1ccc(-n2cnc3c(sc4nccc(N(C)C)c43)c2=O)cn1
17,50,CN(C)c1ccnc2sc3c(=O)n(-c4ccccc4O)cnc3c12
18,306,CCc1ccc(-n2cnc3c(sc4nccc([N+](C)(C)[O-])c43)c2=O)cc1
19,180,CCCc1ccc(-n2cnc3c(sc4nccc(N(C)C)c43)c2=O)cc1
20,49,CCc1ccc(-n2cnc3c(sc4nccc(NCC#N)c43)c2=O)cc1
21,122,CN(C)c1ccnc2sc3c(=O)n(-c4ccc5cc[nH]c5c4)cnc3c12
22,167,C[N+](C)([O-])c1ccnc2sc3c(=O)n(C4CCCCCC4)cnc3c12

# Same assay, conditions: read-out: pIC50 (converted)
row,IC50 [nM],SMILES
1,42.7,CCc1ccc(-n2cnc3c(sc4nccc(NCC#N)c43)c2=O)cc1

# — ChEMBL document CHEMBL1156680, “3D-QSAR studies of triazafluorenone inhibitors of metabotropic glutamate receptor subtype 1” (Eur J Med Chem, 2008)
